According to patent US12410171B2, “Tropomyosin receptor kinase (TRK) degradation compounds and methods of use” (Cullgen (Shanghai), Inc., priority 2020, dated 2025):
Where two headings read alike, the source gives them in different places.

How the values were obtained:
[1] = tested on: KM12 cells; test: KM12 cell viability (CellTiter-Glo); format: cell-based; conditions: Homo sapiens
Outline: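 Three-day exposure of KM12 cells (5000/well, RPMI 1640 with 10% FBS, 37 °C, 5% CO2) to compound dilution series, 3-fold over 8 or 11 points (top 1000 nM in the 8-point format) or 2-fold over 12. CellTiter-Glo readout, with IC50 fitted by nonlinear least-squares regression.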

[2] = biological target: T1, TPM3-TRKA fusion protein (Homo sapiens, UniProt P04629); test: TPM3-TRKA fusion protein levels in KM12 cells (Western blot); format: cell-based; conditions: read-out: Degradation (at 10 nM)
T1 construct: The resulted chimeric proteins always retain the kinase domain of TRK proteins; TPM3 (fusion partner, N-terminal part of tropomyosin alpha-3, P06753); endogenous in cells; host or cells: KM12 colon cancer cells; the other entry of the earlier key: TPM3 (P06753, Tropomyosin alpha-3 chain)
T1 sequence (P04629 with tags, fused parts or gaps): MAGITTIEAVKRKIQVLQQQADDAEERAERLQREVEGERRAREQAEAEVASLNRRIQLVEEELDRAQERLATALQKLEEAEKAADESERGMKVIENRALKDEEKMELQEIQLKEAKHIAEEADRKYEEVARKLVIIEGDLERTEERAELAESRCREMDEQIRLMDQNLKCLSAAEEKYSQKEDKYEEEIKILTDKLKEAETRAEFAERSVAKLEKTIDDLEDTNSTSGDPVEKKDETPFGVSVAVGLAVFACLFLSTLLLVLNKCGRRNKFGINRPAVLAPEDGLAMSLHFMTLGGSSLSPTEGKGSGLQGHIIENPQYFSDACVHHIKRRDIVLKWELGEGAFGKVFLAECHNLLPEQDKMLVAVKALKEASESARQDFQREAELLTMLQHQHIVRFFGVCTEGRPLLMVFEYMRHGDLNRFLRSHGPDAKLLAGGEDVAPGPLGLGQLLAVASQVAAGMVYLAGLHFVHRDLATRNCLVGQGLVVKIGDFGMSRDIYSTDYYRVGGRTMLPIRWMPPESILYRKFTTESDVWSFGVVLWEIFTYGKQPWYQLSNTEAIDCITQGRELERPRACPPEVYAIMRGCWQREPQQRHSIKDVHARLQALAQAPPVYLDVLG
Outline: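 TPM3-TRKA levels were assessed by Western blot with chemiluminescent detection and band densitometry, after SDS-PAGE of BCA-normalized RIPA lysates. Before lysis, KM12 cells received DMSO, compounds or matched control compounds at concentrations including 0.1, 1, 10 and 100 nM and 0.4–30 nM. Exposures lasted 4 h, 8–16 h or 16 h.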

[3] = 72 h, KM12 cell viability, CellTiter-Glo, three days treatment, read-out: IC50
[4] = 16 h, TPM3-TRKA degradation in KM12 cells at 10 nM compound, category of percentage degradation
[5] = 72 h, KM12 cell viability, 11-point 3-fold serial dilution, 3 days, CellTiter-Glo, read-out: IC50
[6] = 16 h, TPM3-TRKA degradation in KM12 cells at 10 nM

| percent degradation of TPM3-TRKA protein at 0.01 µM [2, 4] | percent degradation of TPM3-TRKA protein at 0.01 µM [2, 6] | Structure (SMILES) | IC50 [1, 3] | IC50 [1, 5] | other results |
| --- | --- | --- | --- | --- | --- |
| 50 to 80% |  | O=C1CCC(n2c(=O)n(CCCN3CCN(c4cccc(-c5cnc6ccc(N7CCC[C@@H]7c7cccc(F)c7)nn56)n4)CC3)c3ccccc32)C(=O)N1 (stereo partly drawn) [TR-228, 3-(3-(3-(4-(6-(6-((R)-2-(3-fluorophenyl)pyrrolidin-1-yl)imidazo[1,2-b]pyridazin-3-yl)pyridin-2-yl)piperazin-1-yl)propyl)-2-oxo-2,3-dihydro-1H-benzo[d]imidazol-1-yl)piperidine-2,6-dione] | 56.3 nM |  |  |
|  | > 80% | O=C1CCC(N2C(=O)c3ccc(NCCCCCC(=O)N4CCC(Nc5cccc(C(=O)Nc6cnn7ccc(N8CCC[C@@H]8c8cc(F)ccc8F)nc67)n5)CC4)cc3C2=O)C(=O)N1 (stereo partly drawn) [CPD-471, N-(5-((R)-2-(2,5-difluorophenyl)pyrrolidin-1-yl)pyrazolo[1,5-a]pyrimidin-3-yl)-6-((1-(6-((2-(2,6-dioxopiperidin-3-yl)-1,3-dioxoisoindolin-5-yl)amino)hexanoyl)piperidin-4-yl)amino)picolinamide] |  | 19 nM |  |
| > 80% |  | O=C1CCC(N2C(=O)c3ccc(NC4CCC(N5CCN(c6ccc(C(=O)Nc7n[nH]c8ccc(Cc9cc(F)cc(F)c9)cc78)c(NC7CCOCC7)c6)CC5)CC4)cc3C2=O)C(=O)N1 (stereo not shown) [TR-289, N-(5-(3,5-Difluorobenzyl)-1H-indazol-3-yl)-4-(4-(4-((2-(2,6-dioxopiperidin-3-yl)-1,3-dioxoisoindolin-5-yl)amino)cyclohexyl)piperazin-1-yl)-2-((tetrahydro-2H-pyran-4-yl)amino)benzamide] | 3.8 nM |  |  |
| > 80% |  | O=C1CCC(N2C(=O)c3ccc(NC4CCC(N5CCN(c6ccc(C(=O)Nc7n[nH]c8ccc(Cc9cc(F)cc(F)c9)cc78)c(NC7CCOCC7)c6)CC5)C4)cc3C2=O)C(=O)N1 (stereo not shown) [TR-299, N-(5-(3,5-Difluorobenzyl)-1H-indazol-3-yl)-4-(4-(3-((2-(2,6-dioxopiperidin-3-yl)-1,3-dioxoisoindolin-S-yl)amino)cyclopentyl)piperazin-1-yl)-2-((tetrahydro-2/-pyran-4-yl)amino)benzamide] | 23 nM |  |  |
|  | 50 to 80% | NC(=O)C1CCN(c2cc(CN3CCN(C(=O)CCOCCNc4cccc5c4C(=O)N(C4CCC(=O)NC4=O)C5=O)CC3)ccc2NC(=O)c2coc(N3CCOCC3)n2)CC1 (stereo not shown) [CPD-485, N-(2-(4-carbamoylpiperidin-1-yl)-4-((4-(3-(2-((2-(2,6-dioxopiperidin-3-yl)-1,3-dioxoisoindolin-4-yl)amino)ethoxy)propanoyl)piperazin-1-yl)methyl)phenyl)-2-morpholinooxazole-4-carboxamide] |  | 94 nM |  |
|  | > 80% | NC(=O)C1CCN(c2cc(CN3CCN(C(=O)CCCCNc4cccc5c4C(=O)N(C4CCC(=O)NC4=O)C5=O)CC3)ccc2NC(=O)c2coc(N3CCOCC3)n2)CC1 (stereo not shown) [CPD-481, N-(2-(4-carbamoylpiperidin-1-yl)-4-((4-(5-((2-(2,6-dioxopiperidin-3-yl)-1,3-dioxoisoindolin-4-yl)amino)pentanoyl)piperazin-1-yl)methyl)phenyl)-2-morpholinooxazole-4-carboxamide] |  | 17 nM |  |
|  | > 80% | O=C1CCC(N2C(=O)c3ccc(NCCOCCOCCC(=O)N4CCC(Nc5cccc(C(=O)Nc6cnn7ccc(N8CCC[C@@H]8c8cc(F)ccc8F)nc67)n5)CC4)cc3C2=O)C(=O)N1 (stereo partly drawn) [CPD-474, N-(5-((R)-2-(2,5-difluorophenyl)pyrrolidin-1-yl)pyrazolo[1,5-a]pyrimidin-3-yl)-6-((1-(3-(2-(2-((2-(2,6-dioxopiperidin-3-yl)-1,3-dioxoisoindolin-5-yl)amino)ethoxy)ethoxy)propanoyl)piperidin-4-yl)amino)picolinamide] |  | 18 nM |  |
|  |  | Cn1c(=O)n(C2CCC(=O)NC2=O)c2cccc(OCCN3CCN(c4ccc(C(=O)Nc5n[nH]c6ccc(Cc7cc(F)cc(F)c7)cc56)c(NC5CCOCC5)c4)CC3)c21 (stereo not shown) [TR-322, N-(5-(3,5˜Difluorobenzyl)-1H-indazol-3-yl)-4-(4-(2-((1-(2,6-dioxopiperidin-3-yl)-3-methyl-2-oxo-2,3-dihydro-1H-benzo[d]imidazol-4-yl)oxy)ethyl)piperazin-1-yl)-2-((tetrahydro-2H-pyran˜4-yl)amino)benzamide] |  |  | IC50 ([1]; KM12, 72 h): 168 nM; percent degradation of TPM3-TRKA protein at 0.01 µM ([2]; KM12, 16 h): < 50% |
| > 80% |  | O=C1CCC(N2Cc3cc(C#CCN4CCN(c5ccc(C(=O)Nc6n[nH]c7ccc(Cc8cc(F)cc(F)c8)cc67)c(NC6CCOCC6)c5)CC4)ccc3C2=O)C(=O)N1 (stereo not shown) [TR-253, N-(5-(3,5-Difluorobenzyl)-1H-indazol-3-yl)-4-(4-(3-(2-(2,6-dioxopiperidin-3-yl)-1-oxoisoindolin-5-yl)prop-2-yn-1-yl)piperazin-1-yl)-2-((tetrahydro-2H-pyran-4-yl)amino)benzamide] | 6.9 nM |  |  |
| > 80% |  | O=C1CCC(N2Cc3cc(N4CC(N5CCN(c6ccc(C(=O)Nc7n[nH]c8ccc(Cc9cc(F)cc(F)c9)cc78)c(NC7CCOCC7)c6)CC5)C4)ccc3C2=O)C(=O)N1 (stereo not shown) [TR-332, N-(5-(3,5-difluorobenzyl)-1H-indazol-3-yl)-4-(4-(1-(2-(2,6-dioxopiperidin-3-yl)-1-oxoisoindolin-5-yl)azetidin-3-yl)piperazin-1-yl)-2-((tetrahydro-2H-pyran-4-yl)amino)benzamide] | 1.7 nM |  |  |
|  | > 80% | NC(=O)C1CCN(c2cc(CN3CCN(C(=O)CCCCCCCNc4cccc5c4C(=O)N(C4CCC(=O)NC4=O)C5=O)CC3)ccc2NC(=O)c2coc(N3CCOCC3)n2)CC1 (stereo not shown) [CPD-484, N-(2-(4-carbamoylpiperidin-1-yl)-4-((4-(8˜ ((2-(2,6-dioxopiperidin-3-yl)-1,3-dioxoisoindolin-4-yl)amino)octanoyl)piperazin-1-yl)methyl)phenyl)-2-morpholinooxazole-4-carboxamide] |  | 42 nM |  |
|  | > 80% | COc1ccc(COc2ccc(Cn3c(N)nc4cc(-c5cnn(CC(=O)NCCCCCCNc6cccc7c6C(=O)N(C6CCC(=O)NC6=O)C7=O)c5)cnc43)cc2OC)cc1 (stereo not shown) [CPD-500, 2-(4-(2-amino-3-(3-methoxy-4-((4-methoxybenzyl)oxy)benzyl)-3H-imidazo[4,5-b]pyridin-6-yl)-1H-pyrazol-1-yl)-N-(6-((2-(2,6-dioxopiperidin-3-yl)-1,3-dioxoisoindolin-4-yl)amino)hexyl)acetamide] |  | 13.2 nM |  |
| > 80% |  | O=C1CCC(N2C(=O)c3ccc(C#CCN4CCN(c5ccc(C(=O)Nc6n[nH]c7ccc(Cc8cc(F)cc(F)c8)cc67)c(NC6CCOCC6)c5)CC4)cc3C2=O)C(=O)N1 (stereo not shown) [TR-283, N-(5-(3,5-Difluorobenzyl)-1H-indazol-3-yl)-4-(4-(3-(2-(2,6-dioxopiperidin-3-yl)-1,3-dioxoisoindolin-5-yl)prop-2-yn-1-yl)piperazin-1-yl)-2-((tetrahydro-28-pyran-4-yl)amino)benzamide] | 54 nM |  |  |
| > 80% |  | O=C1CCC(N2C(=O)c3ccc(CCCN4CCN(c5ccc(C(=O)Nc6n[nH]c7ccc(Cc8cc(F)cc(F)c8)cc67)c(NC6CCOCC6)c5)CC4)cc3C2=O)C(=O)N1 (stereo not shown) [TR-276, N-(5-(3,5-difluorobenzyl)-1H-indazol-3-yl)-4-(4-(3-(2˜ (2,6-dioxopiperidin-3-yl)-1,3-dioxoisoindolin-5-yl)propyl)piperazin-1-yl)-2-((tetrahydro-2H-pyran-4-yl)amino)benzamide] | 9.9 nM |  |  |
|  |  | Cn1c(=O)n(C2CCC(=O)NC2=O)c2ccc(OCCN3CCN(c4ccc(C(=O)Nc5n[nH]c6ccc(Cc7cc(F)cc(F)c7)cc56)c(NC5CCOCC5)c4)CC3)cc21 (stereo not shown) [TR-314, N-(5-(3,5˜Difluorobenzyl)-1H-indazol-3-yl)-4-(4-(2-((1-(2,6-dioxopiperidin-3˜yl)-3-methyl-2-oxo-2,3-dihydro-1H-benzo[d]imidazol-5-yl)oxy)ethyl)piperazin-1-yl)-2-((tetrahydro-2H-pyran-4-yl)amino)benzamide] |  |  | IC50 ([1]; KM12, 72 h): 213 nM; percent degradation of TPM3-TRKA protein at 0.01 µM ([2]; KM12, 16 h): 50 to 80% |
|  | > 80% | O=C1CCC(N2C(=O)c3ccc(NCCOCCOCCOCCOCCC(=O)N4CCC(Nc5cccc(C(=O)Nc6cnn7ccc(N8CCC[C@@H]8c8cc(F)ccc8F)nc67)n5)CC4)cc3C2=O)C(=O)N1 (stereo partly drawn) [CPD-476, N-(5-((R)-2-(2,5-difluorophenyl)pyrrolidin-1-yl)pyrazolo[1,5-a]pyrimidin-3-yl)-6-((1-(1-((2-(2,6-dioxopiperidin-3-yl)-1,3-dioxoisoindolin-5-yl)amino)-3,6,9,12-tetraoxapentadecan-15-oyl)piperidin-4-yl)amino)picolinamide] |  | 22.4 nM |  |
| > 80% |  | O=C1CCC(N2C(=O)c3ccc(N4CC(NC5CCN(c6ccc(C(=O)Nc7n[nH]c8ccc(Cc9cc(F)cc(F)c9)cc78)c(NC7CCOCC7)c6)CC5)C4)cc3C2=O)C(=O)N1 (stereo not shown) [TR-337, N-(5-(3,5-difluorobenzyl)-1H-indazol-3-yl)-4-(4-((1-(2-(2,6-dioxopiperidin-3-yl)-1,3-dioxoisoindolin-5-yl)azetidin-3-yl)amino)piperidin-1-yl)-2-((tetrahydro-2H-pyran-4-yl)amino)benzamide] | 5.5 nM |  |  |
